The text below walks through data of patent US20250113824A1, “WEED CONTROL METHOD” (SUMITOMO CHEMICAL COMPANY, LIMITED, priority 2018, published 2025).

In assay [1] the test system is glyphosate-resistant weeds and volunteer glyphosate-tolerant soybean and cotton. As to the kind of experiment: Soil treatment pot test in greenhouse (Example 1). Format: in vivo. Particulars: soil treated on day of seeding; 6.25, 12.5, 25, 50, 100 or 150 g/ha; 200 L/ha; twenty-eight days after treatment. On the procedure:
(§1) In a plastic pot are seeded glyphosate-resistant Amaranthus palmeri in which the number of copies of EPSPS gene has been increased, glyphosate-resistant waterhemp in which the number of copies of EPSPS gene has been increased, glyphosate-resistant kochia in which the number of copies of EPSPS gene has been increased, marestail which is resistant to glyphosate by involving an ABC transporter, Guernsey fleabane which is resistant to glyphosate by involving an ABC transporter, fleabane which is resistant to glyphosate by involving an ABC transporter, glyphosate-resistant goosegrass having Thr102Ile, glyphosate-resistant goosegrass having Pro106Ser, glyphosate-resistant goosegrass having Pro106Ala, glyphosate-resistant goosegrass having Pro106Leu, glyphosate-resistant goosegrass having Thr102Ile and Pro106Ser, glyphosate-resistant darnel having Thr102Ile, glyphosate-resistant darnel having Pro106Ser, glyphosate-resistant darnel having Pro106Ala, glyphosate-resistant darnel having Pro106Leu, volunteer glyphosate-tolerant soybean, and volunteer glyphosate-tolerant cotton. On the same day, the soil is treated with the present compound at the application rate of 6.25, 12.5, 25, 50, 100 or 150 g/ha. The amount of a liquid sprayed is 200 L/ha. Subsequently, the plants are cultivated in a greenhouse.

Assay [2] shares this test system. As to the kind of experiment: Foliar treatment pot test in greenhouse (Example 2). Format: in vivo. Particulars: foliar application after 21 days cultivation; 6.25, 125, 25, 50, 100 or 150 g/ha; 200 L/ha; fourteen days after treatment. On the procedure:
as §1, with “The plants are cultivated in a greenhouse for 21 days, and then” for “On the same day, the soil is treated with”, “compound is applied to foliage of the plants” for “compound”, “at” for “at the”, “[…],” for “12.5,”

For the compound `CCOC(=O)COc1ncccc1Oc1cc(-n2c(=O)cc(C(F)(F)F)n(C)c2=O)c(F)cc1Cl` [present compound, ethyl [3-[2-chloro-4-fluoro-5-(1-methyl-6-trifluoromethyl-2,4-dioxo-1,2,3,4-tetrahydropyrimidin-3-yl)phenoxy]-2-pyridyloxy]acetate], the “effect against the weeds” value in assay [1] and in assay [2] was “significant effect” in each case.
